Source: ChEMBL document CHEMBL1154408, “Molecular epidemiology of imipenem-resistant Acinetobacter haemolyticus and Acinetobacter baumannii isolates carrying plasmid-mediated OXA-40 from a Portuguese hospital” (2007)
≈ marks a conversion by molar mass, not a printed value.

Key:
[1] = test system: Acinetobacter baumannii; test: Antibacterial activity against Acinetobacter baumannii A clone expressing carbapenemase-encoding blaOXA-40 gene by agar dilution method; format: functional, organism-based
[2] = test system: Acinetobacter baumannii; test: Antibacterial activity against Acinetobacter baumannii B clone by agar dilution method; format: functional, organism-based
[3] = test system: Acinetobacter baumannii; test: Antibacterial activity against Acinetobacter baumannii C clone by agar dilution method; format: functional, organism-based
[4] = test system: Acinetobacter haemolyticus; test: Antibacterial activity against Acinetobacter haemolyticus expressing carbapenemase-encoding blaOXA-40 gene by agar dilution method; format: functional, organism-based
[5] = test system: Acinetobacter baumannii; test: Antibacterial activity against Acinetobacter baumannii B clone by Etest method; format: functional
[6] = test system: Acinetobacter baumannii; test: Antibacterial activity against Acinetobacter baumannii C clone by Etest method; format: functional
[7] = test system: Acinetobacter haemolyticus; test: Antibacterial activity against Acinetobacter haemolyticus expressing carbapenemase-encoding blaOXA-40 gene by Etest method; format: functional
[8] = test system: Acinetobacter baumannii; test: Antibacterial activity against Acinetobacter baumannii A clone expressing carbapenemase-encoding blaOXA-40 gene by Etest method; format: functional

Compound | MIC [1] | MIC [2] | MIC [3] | MIC [5] | MIC [6] | MIC [8] | MIC [4] | MIC [7]
C[C@@H](O)[C@H]1C(=O)N2C(C(=O)O)=C(S[C@@H]3CN[C@H](C(=O)N(C)C)C3)[C@H](C)[C@H]12 [MEROPENEM] | – | – | – | 2 µg/mL (≈ 5.22 µM) | 4 µg/mL (≈ 10.4 µM) | ≥ 32 µg/mL | – | ≥ 32 µg/mL
C[C@@H](O)[C@H]1C(=O)N2C(C(=O)O)=C(SCCNC=N)C[C@H]12 [IMIPENEM ANHYDROUS] | – | – | – | ≥ 32 µg/mL | 32 µg/mL (≈ 107 µM) | ≥ 32 µg/mL | – | ≥ 32 µg/mL
CC(C)(O/N=C(\C(=O)N[C@@H]1C(=O)N2C(C(=O)[O-])=C(C[n+]3ccccc3)CS[C@H]12)c1csc(N)n1)C(=O)O [CEFTAZIDIME] | – | – | – | 4 µg/mL (≈ 7.32 µM) | 4 µg/mL (≈ 7.32 µM) | 256 µg/mL (≈ 468 µM) | – | 4 µg/mL (≈ 7.32 µM)
CO/N=C(\C(=O)N[C@@H]1C(=O)N2C(C(=O)[O-])=C(C[N+]3(C)CCCC3)CS[C@H]12)c1csc(N)n1 | – | – | – | – | – | – | – | 4 µg/mL (≈ 8.32 µM)
C[C@H]1[C@H](NC(=O)/C(=N\OC(C)(C)C(=O)O)c2csc(N)n2)C(=O)N1S(=O)(=O)O [AZTREONAM] | – | – | – | – | – | – | – | 4 µg/mL (≈ 9.19 µM)

Second part, led by results:

MIC [1] | MIC [2] | MIC [3] | MIC [5] | MIC [6] | MIC [8] | Compound | MIC [4] | MIC [7]
> 16 µg/mL | > 16 µg/mL | 2 µg/mL | – | – | – | COLISTIN | 4 µg/mL | –
– | – | – | > 64 µg/mL | 128 µg/mL (≈ 350 µM) | ≥ 256 µg/mL | CC1(C)S[C@@H]2[C@H](NC(=O)[C@H](N)c3ccc(O)cc3)C(=O)N2[C@H]1C(=O)O [AMOXICILLIN] | – | ≥ 256 µg/mL
– | – | – | ≥ 256 µg/mL | 64 µg/mL (≈ 124 µM) | ≥ 256 µg/mL | CCN1CCN(C(=O)N[C@@H](C(=O)N[C@@H]2C(=O)N3[C@@H]2SC(C)(C)[C@@H]3C(=O)O)c2ccccc2)C(=O)C1=O [PIPERACILLIN] | – | ≥ 256 µg/mL
– | – | – | ≥ 256 µg/mL | ≥ 256 µg/mL | ≥ 256 µg/mL | CC1(C)S[C@@H]2[C@H](NC(=O)[C@H](C(=O)O)c3ccsc3)C(=O)N2[C@H]1C(=O)O [TICARCILLIN] | – | ≥ 256 µg/mL
– | – | – | ≥ 256 µg/mL | ≥ 256 µg/mL | ≥ 256 µg/mL | CO[C@@]1(NC(=O)Cc2cccs2)C(=O)N2C(C(=O)O)=C(COC(N)=O)CS[C@@H]21 [CEFOXITIN] | – | 32 µg/mL (≈ 74.9 µM)
